In PubChem BioAssay AID328 (DTP/NCI, 2004):
“And” between values parts separate entries of the source, which are not always exact repeats. Equal values may be shown once. Toxic doses and inconclusive results are not listed. Rule for the calls: active = survival T/C of 150% or more; inactive = T/C below 125% in these data.

System: BDF1 mice, P388 leukemia ip, median survival T/C
Test: NCI In Vivo Anticancer Drug Screen. Data for tumor model P388 Leukemia (intraperitoneal) in B6D2F1 (BDF1) mice
Settings: endpoint: median survival time, higher = longer survival
Procedure, shortened: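 Reported as T/C, where T is the survival measurement in dosed animals and C the same measurement in vehicle controls.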

[1] = dose: 50.0 mg/kg/injection, schedule: Q01DX009 (ip), vehicle: Klucel (hydroxypropylcellulose) (HPC)
[2] = dose: 100.0 mg/kg/injection, schedule: Q01DX009 (ip), vehicle: Klucel (hydroxypropylcellulose) (HPC)
[3] = dose: 100.0 mg/kg/injection, schedule: Q04DX003 (ip), vehicle: other
[4] = dose: 200.0 mg/kg/injection, schedule: Q01DX009 (ip), vehicle: Klucel (hydroxypropylcellulose) (HPC)
[5] = dose: 200.0 mg/kg/injection, schedule: Q04DX003 (ip), vehicle: other
[6] = dose: 50.0 mg/kg/injection, schedule: Q04DX003 (ip), vehicle: saline
[7] = dose: 100.0 mg/kg/injection, schedule: Q04DX003 (ip), vehicle: saline
[8] = dose: 200.0 mg/kg/injection, schedule: Q04DX003 (ip), vehicle: saline
[9] = dose: 100.0 mg/kg/injection, schedule: Q01DX009 (ip), vehicle: saline with Tween-80
[10] = dose: 200.0 mg/kg/injection, schedule: Q04DX003 (ip), vehicle: saline with Tween-80
[11] = dose: 400.0 mg/kg/injection, schedule: Q01DX009 (ip), vehicle: Klucel (hydroxypropylcellulose) (HPC)
[12] = dose: 50.0 mg/kg/injection, schedule: Q01DX009 (ip), vehicle: saline
[13] = dose: 100.0 mg/kg/injection, schedule: Q01DX009 (ip), vehicle: saline

Measured: T/C

Cc1ccc(N2C=Nc3ccc(C)cc3C2)cc1
inactive: dose: 10.0 mg/kg/injection, schedule: Q01DX009 (ip), vehicle: Klucel (hydroxypropylcellulose) (HPC) 100 % of control | dose: 15.0 mg/kg/injection, schedule: Q01DX009 (ip), vehicle: Klucel (hydroxypropylcellulose) (HPC) 100 % of control | dose: 25.0 mg/kg/injection, schedule: Q01DX009 (ip), vehicle: Klucel (hydroxypropylcellulose) (HPC) 90 % of control | dose: 40.0 mg/kg/injection, schedule: Q01DX009 (ip), vehicle: Klucel (hydroxypropylcellulose) (HPC) 100 % of control | [1] 118 % of control | [2] 109 % of control | [3] 109 % of control | [4] 90 % of control | [5] 104 % of control

Brc1c(-c2ccccc2)cc(-c2ccccc2)cc1-c1ccccc1
inactive: dose: 100.0 mg/kg/injection, schedule: Q04DX003 (ip), vehicle: Klucel (hydroxypropylcellulose) (HPC) 108 % of control | dose: 200.0 mg/kg/injection, schedule: Q04DX003 (ip), vehicle: Klucel (hydroxypropylcellulose) (HPC) 95 % of control | dose: 400.0 mg/kg/injection, schedule: Q04DX003 (ip), vehicle: Klucel (hydroxypropylcellulose) (HPC) 95 % of control

c1ccc(C(NC2CC3CCC2C3)c2ccccc2)cc1 (stereo not drawn)
inactive: [6] 108 % of control | [7] 108 % of control | [8] 108 % of control

COc1cc2ccc3c(c2cc1OC)CNCC3
inactive: [6] 104 % of control | [7] 109 % of control | [8] 109 % of control

O=c1cc(-c2ccccc2)ss1
inactive: dose: 6.25 mg/kg/injection, schedule: Q01DX009 (ip), vehicle: saline with Tween-80 98 % of control | dose: 12.5 mg/kg/injection, schedule: Q01DX009 (ip), vehicle: saline with Tween-80 102 % of control and 122 % of control | dose: 50.0 mg/kg/injection, schedule: Q01DX009 (ip), vehicle: saline with Tween-80 110 % of control and 121 % of control | dose: 50.0 mg/kg/injection, schedule: Q04DX003 (ip), vehicle: saline with Tween-80 89 % of control | [9] 121 % of control and 122 % of control | [3] 105 % of control | dose: 100.0 mg/kg/injection, schedule: Q04DX003 (ip), vehicle: saline with Tween-80 99 % of control and 100 % of control | dose: 178.0 mg/kg/injection, schedule: Q04DX003 (ip), vehicle: other 111 % of control | dose: 200.0 mg/kg/injection, schedule: Q01DX009 (ip), vehicle: saline with Tween-80 110 % of control | [5] 100 % of control | [10] 111 % of control | dose: 266.0 mg/kg/injection, schedule: Q04DX003 (ip), vehicle: other 111 % of control | dose: 400.0 mg/kg/injection, schedule: Q04DX003 (ip), vehicle: saline with Tween-80 100 % of control

Cc1ccc(S(=O)(=O)NCC(C)C)cc1
inactive: [1] 94 % of control | [2] 86 % of control | [4] 104 % of control | [11] 102 % of control

Cc1cc(NC(=O)Nc2ccc(C3=NCCN3)cc2)ccc1NC(=O)Nc1ccc(C2=NCCN2)cc1
active: dose: 400.0 mg/kg/injection, schedule: Q01DX009 (ip), vehicle: saline with Tween-80 159 % of control
inactive: [9] 122 % of control

CNCC(=O)NC(CO)C(=O)NC1C(C(N)=O)OC(n2ccc(N)nc2=O)C(O)C1O (stereo not drawn)
inactive: dose: 0.75 mg/kg/injection, schedule: Q04DX003 (ip), vehicle: saline 103 % of control | dose: 1.5 mg/kg/injection, schedule: Q04DX003 (ip), vehicle: saline 112 % of control | dose: 3.0 mg/kg/injection, schedule: Q04DX003 (ip), vehicle: saline 102 % of control

CC1NNC(=O)C1(Br)Br (stereo not drawn)
inactive: dose: 1.56 mg/kg/injection, schedule: Q01DX009 (ip), vehicle: gum acacia 113 % of control | dose: 3.12 mg/kg/injection, schedule: Q01DX009 (ip), vehicle: gum acacia 113 % of control | dose: 6.25 mg/kg/injection, schedule: Q01DX009 (ip), vehicle: gum acacia 94 % of control

FC(F)(F)c1ccc2c(c1)N(CCCN(CCCl)CCCl)c1ccccc1S2
inactive: dose: 3.1 mg/kg/injection, schedule: Q04DX003 (ip), vehicle: saline with Tween-80 112 % of control | dose: 6.25 mg/kg/injection, schedule: Q04DX003 (ip), vehicle: saline with Tween-80 122 % of control | dose: 25.0 mg/kg/injection, schedule: Q04DX003 (ip), vehicle: saline with Tween-80 119 % of control

CC(NC(=O)C(N)CSC(c1ccccc1)(c1ccccc1)c1ccccc1)C(=O)O (stereo not drawn)
inactive: dose: 88.0 mg/kg/injection, schedule: Q04DX003 (ip), vehicle: saline with Tween-80 113 % of control | dose: 88.0 mg/kg/injection, schedule: Q04DX003 (ip), vehicle: saline 122 % of control
active: [10] 195 % of control

COC(=O)C1c2cc3c(c(O)c2CCC1(C)O)C(=O)c1c(O)cc2c(c1C3=O)OC1OC2(C)C(O)C(N(C)C)C1O (stereo not drawn)
inactive: dose: 11.0 mg/kg/injection, schedule: Q01DX009 (ip), vehicle: saline 113 % of control | dose: 200.0 mg/kg/injection, schedule: Q01DX010 (ip), vehicle: saline 105 % of control

COC(=O)CCCCCCCCC(C)c1ccccc1 (stereo not drawn)
inactive: dose: 264.0 mg/kg/injection, schedule: Q01DX009 (ip), vehicle: saline 110 % of control | dose: 400.0 mg/kg/injection, schedule: Q01DX009 (ip), vehicle: saline 110 % of control

CN(C)C=Nc1ccccc1
inactive: [2] 113 % of control | [4] 95 % of control | [11] 109 % of control

CC(=O)C1COC(O)C1C (stereo not drawn)
inactive: dose: 0.63 mg/kg/injection, schedule: Q01DX010 (ip), vehicle: saline 95 % of control | dose: 1.25 mg/kg/injection, schedule: Q01DX009 (ip), vehicle: saline 115 % of control and 103 % of control | dose: 1.25 mg/kg/injection, schedule: Q01DX010 (ip), vehicle: saline 100 % of control | dose: 2.5 mg/kg/injection, schedule: Q01DX010 (ip), vehicle: saline 116 % of control

COC(=O)C(NC(C)=O)C(=O)OC
inactive: [2] 104 % of control | [4] 92 % of control | [11] 88 % of control

Clc1ncnc2c1ncn2C1CCCCO1 (stereo not drawn)
inactive: dose: 25.0 mg/kg/injection, schedule: Q01DX009 (ip), vehicle: saline 90 % of control | [12] 100 % of control | dose: 100.0 mg/kg/injection, schedule: Q01DX009 (ip), vehicle: other 92 % of control | [13] 95 % of control | [3] 108 % of control | [5] 108 % of control | dose: 400.0 mg/kg/injection, schedule: Q01DX009 (ip), vehicle: other 115 % of control | dose: 400.0 mg/kg/injection, schedule: Q04DX003 (ip), vehicle: other 108 % of control

Nc1nc2ccccc2[nH]1
inactive: [12] 105 % of control | [13] 102 % of control
